Source: patent publication US4229471A, “N-(2-Ethylhexyl)-crotonamides” (The Lion Dentifrice Co., Ltd., priority 1978, dated 1980)

Experiments:
[1] = tested on: Mastocytoma P-815; test: Ascites tumor (Mastocytoma P-815) inhibition in BDF1 mice; format: in vivo; settings: 0.5 mg/mouse/day × 6, intraperitoneal
Description: Mice of BDF1 species (5 week old male, suppliers: Charles River and Shizuoka Laboratory Animal Center) were divided into four groups each containing three to six. Cancerized mast cells (Mastocytoma P-815) were implanted into the ascites of a mouse in an amount of 1×10^6 cells/mouse. From the next day, drug
A: N-(2-ethylhexyl)-crotonamide,
B: N-(2-ethylhexyl)-beta-methylcrotonamide, or
C: N-(2-ethylhexyl)-beta-hydroxybutyramide
was administered once a day by intra-peritoneal injection in an amount of 0.5 mg/mouse/day for 6 days, respectively. After 18 hours from the last administration, the mice were killed with ether for anesthesia. The entire ascitic cells were taken out with about 20 ml of phosphate buffered saline. Using the nigrosine staining method (0.01% nigrosine in Earl's balanced salt solution), the number of cells, particularly, live cells were counted by means of a Thomas leucocyte counting apparatus.
For the above-described administration procedure was used 50 mg of the drug to which 25 mg of polyoxyethylene sorbitan monooleate (Tween 80) was added and the mixture was suspended in 5 ml of physiological salt solution and sterilized in an autoclave at 120° C. under 2 atm. for 15 minutes. The resulting sterile suspension was ready for administration.
**Tumor inhibition ratio was calculated in terms of the following
C : number of ascites cancer cells in the control group
N : number of ascites cancer cells in the treated group

[2] = tested on: DNA synthesis in cancerized mast cells (Mastocytoma P-815); test: 3H-TdR incorporation into DNA of cancerized mast cells; format: cell-based, mouse; settings: for inhibition at 100 µg/mL / inhibition at 500 µg/mL: Mus musculus, P815, 1.25 h, read-out: DNA synthesis inhibition ratio
Description: Effects of drugs on ^3 H-TdR (tritium labelled thymidine) incorporation into DNA of cancerized mast cells were examined.
Cancerized mast cells (Mastocytoma P-815), 4.25×10^6 cells, were incubated for 15 minutes with or without each of drugs, A: (N-(2-ethylhexyl)-crotonamide), B: (N-(2-ethylhexyl)-β-methylcrotonamide) and C: (N-(2-ethylhexyl)-β-hydroxybutyramide) (each 100 μg and 500 μg) in 1 cc of Fischer culture medium. Thereafter, 0.1 μCi of ^3 H-TdR was added and incubation was proceeded for an additional 60 minutes. The cells were washed with PBS and the DNA was precipitated with 5% (W/V) trichloroacetic acid. Precipitates were counted in a liquid Scintillation Spectrometer.
*Inhibition ratio was calculated in terms of the following equation: […]
c : amount of ^3 H--TdR incorporated in the control group (cpm)
s : amount of ^3 H--TdR incorporated in the treated group (cpm)

[3] = Solubility; format: physicochemical; settings: for solubility in organic solvents: organic solvents such as acetone
[4] = Acute toxicity test; settings: in vivo, ip; ICR male mouse, intraperitoneal
[5] = tested on: cancerized mast cells (Mastocytoma P-815); test: Inhibition of growth of cancerized mast cells (Mastocytoma P-815) during 20 hours of cultivation; format: cell-based, mouse; settings: 20 hour cultivation, 37° C., FIG. 5
Description: 20 ml of a culture medium containing cancerized mast cells of a mouse (Mastocytoma P-815) at an inoculum cell concentration of 1.6×10^5 cells/ml in Fischer and Sartorelli's medium supplemented with 5% fetal calf serium were cultured in a 120 ml Erlenmeyer flask with or without drugs to be tested in an atmosphere of 5% CO2 and 95% air at 37° C. for 20 hours in a humidified incubator. Drugs, N-(2-ethylhexyl)-crotonamide, N-(2-ethylhexyl)-β-methylcrotonamide or N-(2-ethylhexyl)-β-hydroxybutyramide were added in different amounts to the initial culture medium. No drug was added to a control solution. After cultivation, the number of cells was counted.
The results are shown in FIG. 5 wherein A corresponds to N-(2-ethylhexyl)-crotonamide, B corresponds to N-(2-ethylhexyl)-beta-methylcrotonamide, C corresponds to N-(2-ethylhexyl)-beta-hydroxybutyramide, D is the inoculum cell number, and E corresponds to the control. A, B, C and E are the cell numbers after 20 hour cultivation as described above.

[6] = tested on: cancerous cells; test: Carcinostatic activity (overall statement)
[7] = Shizuoka Laboratory Animal Center BDF1 mice

CCCCC(CC)CNC(=O)CC(C)O (stereo not drawn) [Drug C, N-(2-ethylhexyl)-β-hydroxybutyramide, reference compound]
Number of ascites cancer cells ([1]; Charles River BDF1 mice): 6.0 ×10^8 /mouse
Tumor inhibition ratio ([1]; Charles River BDF1 mice): 63.4%
Number of ascites cancer cells [1, 7]: 6.7 ×10^8 /mouse
Tumor inhibition ratio [1, 7]: 30.9%
3H-TdR incorporated (cpm) ([2]; 100 μg in 1 cc medium): 2205 cpm
3H-TdR incorporated (cpm) ([2]; 500 μg in 1 cc medium): 1200 cpm
inhibition at 100 µg/mL ([2]; 100 μg in 1 cc medium): 45.6%
inhibition at 500 µg/mL ([2]; 500 μg in 1 cc medium): 70.4%

C/C=C/C(=O)NCC(CC)CCCC (stereo not drawn) [Drug A, N-(2-ethylhexyl)-crotonamide]
solubility in organic solvents [3]: soluble in organic solvents such as acetone
solubility in water [3]: insoluble in water
Number of ascites cancer cells ([1]; Charles River BDF1 mice): 1.5 ×10^8 /mouse
Tumor inhibition ratio ([1]; Charles River BDF1 mice): 90.9%
Number of ascites cancer cells [1, 7]: 1.2 ×10^8 /mouse
Tumor inhibition ratio [1, 7]: 87.6%
LD50 [4]: 540 mg/kg
inhibition of division and growth of cancerized mast cells [5]: more effective than N-(2-ethylhexyl)-β-hydroxybutyramide
carcinostatic activity [6]: high carcinostatic activity
inhibition of DNA synthesis (in words) [2]: effective in inhibiting DNA synthesis
3H-TdR incorporated (cpm) ([2]; 100 μg in 1 cc medium): 400 cpm
3H-TdR incorporated (cpm) ([2]; 500 μg in 1 cc medium): 75 cpm
inhibition at 100 µg/mL ([2]; 100 μg in 1 cc medium): 90.1%
inhibition at 500 µg/mL ([2]; 500 μg in 1 cc medium): 98.1%

CCCCC(CC)CNC(=O)C=C(C)C (stereo not drawn) [Drug B, N-(2-ethylhexyl)-β-methylcrotonamide]
solubility in organic solvents [3]: soluble in organic solvents such as acetone
solubility in water [3]: insoluble in water
Number of ascites cancer cells ([1]; Charles River BDF1 mice): 9.5 ×10^8 /mouse
Tumor inhibition ratio ([1]; Charles River BDF1 mice): 42.1%
Number of ascites cancer cells [1, 7]: 4.0 ×10^8 /mouse
Tumor inhibition ratio [1, 7]: 58.8%
LD50 [4]: 1400 mg/kg
inhibition of division and growth of cancerized mast cells [5]: more effective than N-(2-ethylhexyl)-β-hydroxybutyramide
carcinostatic activity [6]: high carcinostatic activity
inhibition of DNA synthesis (in words) [2]: effective in inhibiting DNA synthesis
3H-TdR incorporated (cpm) ([2]; 100 μg in 1 cc medium): 200 cpm
3H-TdR incorporated (cpm) ([2]; 500 μg in 1 cc medium): 0 cpm
inhibition at 100 µg/mL ([2]; 100 μg in 1 cc medium): 95.1%
inhibition at 500 µg/mL ([2]; 500 μg in 1 cc medium): 100%
